# Source: paper PMC11073699, “Odorant receptors for floral- and plant-derived volatiles in the yellow fever mosquito, Aedes aegypti (Diptera: Culicidae)” (PLOS ONE, 2024)
# “And” between values parts separate entries of the source, which are not always exact repeats. Identical values can stand only once.
# How the values were obtained:
# Format in all cases: cell-based
# [1] = molecular target: T1, AaegOR31 (Aedes aegypti, UniProt Q16JU0); test: Two-electrode voltage clamp of Xenopus laevis oocytes expressing AaegOR31/Orco (blends, unitary compounds, concentration-response); conditions: for Raw Data (Responses in nA), Alcohols 1 unitary compounds / Raw Data (Responses in nA), concentration-response / Normalized response, Average, Alcohols 1 unitary compounds / Normalized response, Alcohols 1 unitary compounds: AaegOR31; for Raw Data (Responses in nA), Alcohols 1 unitary compounds / Normalized response, Average, Alcohols 1 unitary compounds / Normalized response, Alcohols 1 unitary compounds: compounds of blend Alcohols 1; for Raw Data (Responses in nA), Alcohols 1 unitary compounds / Normalized response, Alcohols 1 unitary compounds: individual oocytes (Oocyte 1-8); for Raw Data (Responses in nA), concentration-response: individual oocytes (Oocyte 1-10); for Normalized response, Average, Alcohols 1 unitary compounds: average of 8 oocytes; for Normalized response, Alcohols 1 unitary compounds: normalized to the strongest compound per oocyte
# T1 sequence (Q16JU0 1-381): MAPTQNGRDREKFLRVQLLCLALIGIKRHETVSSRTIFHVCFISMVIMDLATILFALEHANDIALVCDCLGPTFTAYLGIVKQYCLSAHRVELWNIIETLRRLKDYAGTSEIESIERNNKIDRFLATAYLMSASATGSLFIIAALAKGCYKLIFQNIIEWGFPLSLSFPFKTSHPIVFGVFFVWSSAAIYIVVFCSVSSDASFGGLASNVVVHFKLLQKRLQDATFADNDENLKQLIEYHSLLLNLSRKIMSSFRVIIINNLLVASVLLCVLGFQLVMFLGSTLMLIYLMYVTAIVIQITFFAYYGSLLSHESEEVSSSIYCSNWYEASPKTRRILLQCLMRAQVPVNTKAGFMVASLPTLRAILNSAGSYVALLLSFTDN
# T1 sequence (Q178U6 1-478 partner): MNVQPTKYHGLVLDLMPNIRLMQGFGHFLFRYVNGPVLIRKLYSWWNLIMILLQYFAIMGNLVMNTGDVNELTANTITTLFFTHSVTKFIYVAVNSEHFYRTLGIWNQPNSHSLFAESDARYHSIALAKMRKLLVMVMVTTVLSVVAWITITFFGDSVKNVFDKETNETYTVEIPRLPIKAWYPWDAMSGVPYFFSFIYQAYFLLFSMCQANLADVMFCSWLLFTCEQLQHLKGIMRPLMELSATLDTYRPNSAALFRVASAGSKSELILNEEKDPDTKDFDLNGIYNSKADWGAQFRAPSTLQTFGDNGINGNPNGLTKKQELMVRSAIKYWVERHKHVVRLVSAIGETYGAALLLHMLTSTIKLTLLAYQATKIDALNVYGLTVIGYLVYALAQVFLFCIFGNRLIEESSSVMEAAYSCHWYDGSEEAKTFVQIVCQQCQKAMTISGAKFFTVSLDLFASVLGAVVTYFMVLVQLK
# Text: (§1) The coding regions of ten AaegOR genes of interest (S3 File) and AaegOrco were synthesized by Twist Bioscience (San Francisco, CA, USA) and cloned into the pENTR plasmid. The Gateway LR directional cloning system (Invitrogen Corp., Carlsbad, CA, USA) was utilized to subclone AaegOR coding regions into the pSP64t-RFA oocyte expression plasmid. Plasmids were purified using the GeneJet Plasmid Miniprep Kit (ThermoFisher Scientific, Waltham, MA, USA). Purified plasmids were sequenced in both directions to confirm coding regions.
# (§2) Chemical compounds (S6 File) used in the deorphanization of AaegORs were purchased from Acros Organics (Morris, NJ, USA), Alfa Aesar (Ward Hill, MA, USA), and ThermoFisher Scientific (Waltham, MA, USA) at the highest purity available. Compounds were stored as 1M stocks in 100% DMSO. Serial dilutions of each compound were prepared in 10% DMSO and blended by chemical class.
# (§3) pSP64t-RFA: AaegOR clones were linearized using Xbal, and cRNAs were synthesized using the mMESSAGE mMACHINE ® SP6 kit (Life Technologies, Carlsbad, CA, USA). Xenopus laevis stage V-VII oocytes purchased from Xenopus1 (Dexter, MI, USA) were stored at 18°C in Incubation medium (ND96 96 with 5% dialyzed horse serum, 50μg/mL gentamycin, 100μg/mL streptomycin, 100μg/mL penicillin, and 550μg/mL sodium pyruvate). 30nL of cRNA was injected into multiple oocytes using a microinjection syringe pump (World Precision Instruments, Sarasota, FL, USA) maintained at 18°C for 48–72 hrs. Odorant blends were perfused across individual oocytes for 10–15 seconds, held at a resting membrane potential of -80 mV using an OC-725C oocyte clamp (Warner Instruments, LLC, Hamden, CT, USA). Induced currents were measured indirectly using the two-electrode voltage clamp technique (TEVC). Following each stimulus, currents were allowed to return to baseline before further stimulation. Data was captured using the Digidata 1550 B digitizer and PClamp10 software (Molecular Devices, San Jose, CA, USA). Concentration-response curves were generated by perfusing unitary odorants over oocytes at increasing concentrations from [10^-3M] to [10^-9M]. Data were analyzed using GraphPad Prism 8 (GraphPad Software Inc., La Jolla, CA, USA). At least two biological replicates were conducted at each concentration and for each compound. Data for at least seven oocytes responding to each compound was analyzed (S7 File).
# [2] = molecular target: T2, AaegOR13 (Aedes aegypti, UniProt Q16Z13); test: Two-electrode voltage clamp of Xenopus laevis oocytes expressing AaegOR13/Orco (blends, unitary compounds, concentration-response); conditions: unitary compounds; for Raw data (Responses in nA), unitary compounds of Indoles 1, Alcohols 1, Alcohols 3 / Normalized response, unitary compounds of Indoles 1, Alcohols 1, Alcohols 3: individual oocytes 1-7; for Normalized response, unitary compounds, Average: average of oocytes 1-7; for Normalized response, unitary compounds of Indoles 1, Alcohols 1, Alcohols 3: normalized per oocyte
# T2 sequence (Q16Z13 1-389): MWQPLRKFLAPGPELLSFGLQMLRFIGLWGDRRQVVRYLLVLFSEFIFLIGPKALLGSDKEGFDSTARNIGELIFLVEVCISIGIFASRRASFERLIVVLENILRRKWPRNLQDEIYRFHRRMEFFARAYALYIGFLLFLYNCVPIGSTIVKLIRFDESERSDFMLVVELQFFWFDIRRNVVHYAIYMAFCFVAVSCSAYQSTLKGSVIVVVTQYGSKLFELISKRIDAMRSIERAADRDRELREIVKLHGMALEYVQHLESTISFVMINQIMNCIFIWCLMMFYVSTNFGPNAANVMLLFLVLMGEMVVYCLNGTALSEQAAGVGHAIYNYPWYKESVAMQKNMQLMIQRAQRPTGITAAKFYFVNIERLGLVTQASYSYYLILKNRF
# T2 sequence (Q178U6 1-478 partner): T1 sequence (Q178U6 1-478 partner)
# Text: as §1, §2, §3
# [3] = molecular target: T3, AaegOR11 (Aedes aegypti, UniProt Q16PN4); test: Two-electrode voltage clamp of Xenopus laevis oocytes expressing AaegOR11/Orco (blends, unitary compounds, concentration-response)
# T3 sequence (Q16PN4 1-420): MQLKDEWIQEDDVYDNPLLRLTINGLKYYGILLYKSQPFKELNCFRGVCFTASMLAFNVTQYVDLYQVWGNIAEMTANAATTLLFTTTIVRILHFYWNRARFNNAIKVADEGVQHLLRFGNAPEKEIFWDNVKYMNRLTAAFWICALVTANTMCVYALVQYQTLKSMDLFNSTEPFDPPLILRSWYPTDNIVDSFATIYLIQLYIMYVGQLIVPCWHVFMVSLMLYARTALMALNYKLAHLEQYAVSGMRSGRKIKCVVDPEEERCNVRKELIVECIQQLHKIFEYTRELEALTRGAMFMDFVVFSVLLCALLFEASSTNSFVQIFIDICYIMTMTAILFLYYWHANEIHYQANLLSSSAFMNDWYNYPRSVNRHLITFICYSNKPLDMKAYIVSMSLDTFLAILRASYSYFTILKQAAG
# T3 sequence (Q178U6 1-478 partner): T1 sequence (Q178U6 1-478 partner)
# Text: as §1, §2, §3
smiles,measurement,setting,value
CC(C)=CCC/C(C)=C/CC/C(C)=C/CO [farnesol],EC50,"[1]; AaegOR31/Orco expressing oocytes, TEVC, concentration-response of normalized current",14.3 µM
same,"Raw Data (Responses in nA), Alcohols 1 unitary compounds",[1],170.0 nA and 40.0 nA and 50.0 nA and 120.0 nA and 340.0 nA and 75.0 nA and 80.0 nA and 270.0 nA
same,"Raw Data (Responses in nA), concentration-response",[1]; concentration 1e-7 M,0.0 nA (4×) and 20.0 nA and 30.0 nA (2×) and 10.0 nA (2×) and 5.0 nA
same,"Raw Data (Responses in nA), concentration-response",[1]; concentration 5e-7 M,5.0 nA (3×) and 10.0 nA (4×) and 20.0 nA and 0.0 nA and 15.0 nA
same,"Raw Data (Responses in nA), concentration-response",[1]; concentration 1e-6 M,20.0 nA (6×) and 0.0 nA (2×) and 10.0 nA (2×)
same,"Raw Data (Responses in nA), concentration-response",[1]; concentration 5e-6 M,90.0 nA (2×) and 80.0 nA and 30.0 nA and 50.0 nA (2×) and 20.0 nA (2×) and 40.0 nA and 100.0 nA
same,"Raw Data (Responses in nA), concentration-response",[1]; concentration 1e-5 M,130.0 nA (2×) and 120.0 nA (2×) and 55.0 nA and 90.0 nA and 160.0 nA and 45.0 nA and 50.0 nA and 170.0 nA
same,"Raw Data (Responses in nA), concentration-response",[1]; concentration 5e-5 M,190.0 nA and 320.0 nA and 270.0 nA and 130.0 nA and 260.0 nA and 430.0 nA and 150.0 nA and 100.0 nA and 290.0 nA and 360.0 nA
same,"Raw Data (Responses in nA), concentration-response",[1]; concentration 0.0001 M,160.0 nA and 440.0 nA and 280.0 nA and 210.0 nA and 270.0 nA and 400.0 nA and 170.0 nA and 80.0 nA and 320.0 nA and 430.0 nA
same,"Raw data (Responses in nA), unitary compounds of Indoles 1, Alcohols 1, Alcohols 3",[2],0.0 nA
CC(C)O [2-propanol],"Normalized response, Average, Alcohols 1 unitary compounds",[1],10.7
same,"Raw Data (Responses in nA), Alcohols 1 unitary compounds",[1],10.0 nA and 20.0 nA and 15.0 nA and 0.0 nA (5×)
same,"Normalized response, Alcohols 1 unitary compounds",[1],5.9 and 50.0 and 30.0 and 0.0 (5×)
same,"Normalized response, unitary compounds, Average",[2],0.0
same,"Raw data (Responses in nA), unitary compounds of Indoles 1, Alcohols 1, Alcohols 3",[2],0.0 nA
same,"Normalized response, unitary compounds of Indoles 1, Alcohols 1, Alcohols 3",[2],0.0
CCO [ethanol],"Normalized response, Average, Alcohols 1 unitary compounds",[1],0.0
same,"Raw Data (Responses in nA), Alcohols 1 unitary compounds",[1],0.0 nA
same,"Normalized response, Alcohols 1 unitary compounds",[1],0.0
same,"Normalized response, unitary compounds, Average",[2],0.0
same,"Raw data (Responses in nA), unitary compounds of Indoles 1, Alcohols 1, Alcohols 3",[2],0.0 nA
same,"Normalized response, unitary compounds of Indoles 1, Alcohols 1, Alcohols 3",[2],0.0
OCC(O)CO [glycerol],"Raw Data (Responses in nA), Alcohols 1 unitary compounds",[1],5.0 nA (2×) and 0.0 nA (6×)
same,"Raw data (Responses in nA), unitary compounds of Indoles 1, Alcohols 1, Alcohols 3",[2],0.0 nA
Cc1cccc(O)c1 [m-cresol],"Raw Data (Responses in nA), Alcohols 1 unitary compounds",[1],15.0 nA and 0.0 nA (7×)
same,"Raw data (Responses in nA), unitary compounds of Indoles 1, Alcohols 1, Alcohols 3",[2],0.0 nA and 75.0 nA and 25.0 nA (2×) and 40.0 nA (2×) and 45.0 nA
"CC1(C)C(=O)[C@@]2(C)CCC1C2 (single isomer, unassigned; (+)) [(+) Fenchone]","Normalized response, Average, unitary compounds of blend Terpenes 3",[3]; average over oocytes (9; fenchones 6),36.7
same,"Normalized response, unitary compounds of blend Terpenes 3","[3]; individual oocytes, normalized to cis-Decahydro-1-napthol = 100",40.0 and 50.0 (2×) and 30.0 and 25.0 (2×)
same,"Raw data (Responses in nA), unitary compounds, additional oocytes",[3]; six further oocytes in columns without head (fenchone comparison with cis-Decahydro-1-napthol),10 nA
CC12CCC(C1)C(C)(C)C2=O (stereo not drawn) [fenchone],Secondary Ligand,"[3]; AaegOR11, secondary ligand identified during the functional characterizations",fenchone
